One experiment relates to H929 cells. Briefly: In vitro cytotoxicity (MTT) on H929 multiple myeloma tumour line. Type of experiment: cell-based. The following applies: Microculture Tetrazolium Assay. How it is done:
The cytotoxicity studies were carried out on the H929 multiple myeloma tumour line.
The cells are distributed onto microplates and exposed to the test compounds for 48 hours.
The cell viability is then quantified by a colorimetric assay, the Microculture Tetrazolium Assay (Cancer Res., 1987, 47, 939-942).

The target of another experiment is Mcl-1 protein (Homo sapiens, UniProt Q07820). Kind of experiment: Inhibition of Mcl-1 by the fluorescence polarisation technique. In kind it is binding. The protocol:
The relative binding potency of each compound was determined via Fluorescence Polarisation (FP). The method utilised a Fluorescein labelled ligand (Fluorescein-βAla-Ahx-A-REIGAQLRRMADDLNAQY-OH; mw 2,765) which binds to the Mcl-1 protein (such that Mcl-1 corresponds to the UniProtKB® primary accession number: Q07820) leading to an increased anisotropy measured in milli-polarisation (mP) units using a reader. The addition of a compound which binds competitively to the same site as the ligand will result in a greater proportion of unbound ligand in the system indicated by a decrease in mP units.
An 11 point serial dilution of each compound was prepared in DMSO and 2 μl transferred into flat bottomed, low binding, 384-well plate (final DMSO concentration 5%). 38 μl of buffer (10 mM 4-(2-hydroxyethyl)-1-piperazineethanesulfonic acid [HEPES], 150 mM NaCl, 0.05% Tween 20, pH 7.4), containing the Fluorescein labelled ligand (final concentration 1 nM) and Mcl-1 protein (final concentration 5 nM) was then added.
Assay plates were incubated ˜2 hours at r.t. before FP was measured on a Biomek Synergy2 reader (Ex. 528 nm, Em. 640 nm, Cut off 510 nm) and mP units calculated. The binding of increasing doses of test compound was expressed as a percentage reduction in mP compared to a window established between ‘5% DMSO only’ and ‘100% inhibition’ controls. 11-point dose response curves were plotted with XL-Fit software using a 4-Parameter Logistic Model (Sigmoidal Dose-Response Model) and the inhibitory concentrations that gave a 50% reduction in mP (IC50) were determined.
On the technique in general: Fluorescence polarisation rises when a labelled molecule tumbles more slowly, as on binding a larger partner.

Where [1] appears, read: Homo sapiens, NCI-H929, exposed 48 hours.
[2] abbreviates: fluorescence polarisation test, Fluorescein labelled ligand 1 nM, Mcl-1 protein 5 nM, ~2 hours at r.t., read-out: IC50 (M) Mcl-1 FP.

Where two headings read alike, the source gives them in different places.

The term IC50 denotes the midpoint of a concentration-inhibition curve.

Sequence of Mcl-1 protein (Q07820 whole entry): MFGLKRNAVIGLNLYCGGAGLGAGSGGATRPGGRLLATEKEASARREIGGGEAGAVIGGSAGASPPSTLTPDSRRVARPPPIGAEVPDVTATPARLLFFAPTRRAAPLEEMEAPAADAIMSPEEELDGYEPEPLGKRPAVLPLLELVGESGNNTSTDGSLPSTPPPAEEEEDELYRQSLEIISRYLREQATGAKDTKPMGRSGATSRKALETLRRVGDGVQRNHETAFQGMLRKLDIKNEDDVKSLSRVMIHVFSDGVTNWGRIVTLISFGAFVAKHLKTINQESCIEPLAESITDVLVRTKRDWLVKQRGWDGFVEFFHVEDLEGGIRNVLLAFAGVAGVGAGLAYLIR

For `Cc1c(-c2c(-c3ccc(F)cc3)sc3ncnc(OC(Cc4ccccc4OCc4ccnc(-c5cccc(COC(=O)NCCOCCOCCOCCO)c5)n4)C(=O)O)c23)ccc(OCCN2CCN(C)CC2)c1Cl` [Example 36, (2R)-2-{[(5Sa)-5-{3-chloro-2-methyl-4-[2-(4-methylpiperazin-1-yl)ethoxy]phenyl}-6-(4-fluorophenyl)thieno[2,3-d]pyrimidin-4-yl]oxy}-3-[2-({2-[3-(15-hydroxy-3-oxo-2,7,10,13-tetraoxa-4-azapentadec-1-yl)phenyl]pyrimidin-4-yl}methoxy)phenyl]propanoic acid], the IC50 with H929 cells (setting [1]) turned out to be 75.9 nM; on Mcl-1 protein (setting [2]), 4.65e-09 M.
For `COC1OC(COc2ccc(-c3nccc(COc4ccccc4CC(Oc4ncnc5sc(-c6ccc(F)cc6)c(-c6ccc(OCCN7CCN(C)CC7)c(Cl)c6C)c45)C(=O)O)n3)cc2)C(OC)C(OC)C1OC` [Example 19, methyl 6-O-{4-[4-({2-[(2R)-2-carboxy-2-{[(5Sa)-5-{3-chloro-2-methyl-4-[2-(4-methylpiperazin-1-yl)ethoxy]phenyl}-6-(4-fluorophenyl)thieno[2,3-d]pyrimidin-4-yl]oxy}ethyl]phenoxy}methyl)pyrimidin-2-yl]phenyl}-2,3,4-tri-O-methyl-α-D-mannopyranoside], the figures for the IC50 in the experiment with H929 cells (setting [1]) and at Mcl-1 protein (setting [2]) were 2.47 nM and 4.95e-09 M, respectively.
Regarding `Cc1c(-c2c(-c3ccc(F)cc3)sc3ncnc(O[C@H](Cc4ccccc4OCc4ccnc(-c5ccc(OCCN(C)C)cc5)n4)C(=O)O)c23)ccc(OCCN2CCN(C)CC2)c1Cl` [Example 34, (2R)-2-{[(5Sa)-5-{3-chloro-2-methyl-4-[2-(4-methylpiperazin-1-yl)ethoxy]phenyl}-6-(4-flurophenyl)thieno[2,3-d]pyrimidin-4-yl]oxy}-3-{2-[(2-{4-[2-(dimethylamino)ethoxy]phenyl}pyrimidin-4-yl)methoxy]phenyl}propanoic acid], the IC50 in the experiment with H929 cells (exposed 48 hours) was 4.76 nM; on Mcl-1 protein (setting [2]), 7.1e-09 M.
Regarding `Cc1c(-c2c(-c3ccc(F)cc3)sc3ncnc(OC(Cc4ccccc4OCc4ccnc(-c5cccc(OCC6COC(C)(C)O6)c5)n4)C(=O)O)c23)ccc(OCCN2CCN(C)CC2)c1Cl` [Example 35, (2R) -2-{[(5Sa)-5-{3-chloro-2-methyl-4-[2-(4-methylpiperazin-1-yl)ethoxy]phenyl}-6-(4-fluorophenyl)thieno[2,3-d]pyrimidin-4-yl]oxy}-3-{2-[(2-{3-[(2,2-dimethyl-1,3-dioxolan-4-yl)methoxy]phenyl}pyrimidin-4-yl)methoxy]phenyl}propanoic acid], the IC50 amounted to 4.76 nM with H929 cells (setting [1]) and 5.15e-09 M on Mcl-1 protein (setting [2]).
The like results for `Cc1c(-c2c(-c3ccc(F)cc3)sc3ncnc(OC(Cc4ccccc4OCc4ccnc(-c5ccccc5OCCO)n4)C(=O)O)c23)ccc(OCCN2CCN(C)CC2)c1Cl` [Example 26, (2R)-2-{[(5Sa)-5-{3-chloro-2-methyl-4-[2-(4methylpiperazin-1-yl)ethoxy]phenyl}-6-(4-fluorophenyl)thieno[2,3-d]pyrimidin-4-yl]oxy}-3-[2-({2-[2-(2-hydroxyethoxy)phenyl]pyrimidin-4-yl}methoxy)phenyl]propanoic acid] were, in that order, 1.72 nM and 3.45e-09 M.
As to `COC1OC(COc2cccc(-c3nccc(COc4ccccc4CC(Oc4ncnc5sc(-c6ccc(F)cc6)c(-c6ccc(OCCN7CCN(C)CC7)c(Cl)c6C)c45)C(=O)O)n3)c2)C(O)C(O)C1O` [Example 16, methyl 6-O-{3-[4-({2-[(2R)-2-carboxy-2-{[(5Sa)-5-{3-chloro-2-methyl-4-[2-(4-methylpiperazin-1-yl)ethoxy]phenyl}-6-(4-flurophenyl)thieno[2,3-d]pyrimidin-4-yl]oxy}ethyl]phenoxy}methyl)pyrimidin-2-yl]phenyl}-α-D-mannopyranoside], the IC50 in the experiment with H929 cells (exposed 48 hours) was found to be 37.1 nM; at Mcl-1 protein (setting [2]), 7.2e-09 M.
Take `Cc1c(-c2c(-c3ccc(F)cc3)sc3ncnc(OC(Cc4ccccc4OCc4ccnc(-c5ccccc5COCC5COC(C)(C)O5)n4)C(=O)O)c23)ccc(OCCN2CCN(C)CC2)c1Cl` [Example 11, (2R)-2-{[(5Sa)-5-{3-chloro-2-methyl-4-[2-(4-methylpiperazin-1-yl)ethoxy]phenyl}-6-(4-fluorophenyl)thieno[2,3-d]pyrimidin-4-yl]oxy}-3-(2-{[2-(2-{[(2,2-dimethyl-1,3-dioxolan-4-yl)methoxy]methyl}phenyl)pyrimidin-4-yl]methoxy}phenyl)propanoic acid]: the IC50 in the experiment with H929 cells (setting [1]) stood at 1.99 nM; at Mcl-1 protein (setting [2]) it was 4.05e-09 M.
The like results for `Cc1c(-c2c(-c3ccc(F)cc3)sc3ncnc(OC(Cc4ccccc4OCc4ccnc(-c5cccc(COC(=O)NCCN6CCOCC6)c5)n4)C(=O)O)c23)ccc(OCCN2CCN(C)CC2)c1Cl` [Example 42, (2R)-2-{[(5Sa)-5-{3-chloro-2-methyl-4-[2-(4-methylpiperazin-1-yl)ethoxy]phenyl}-6-(4-fluorophenyl)thieno[2,3-d]pyrimidin-4-yl]oxy}-3-{2-[(2-{3-[({[2-(morpholin-4-yl)ethyl]carbamoyl}oxy)methyl]phenyl}pyrimidin-4-yl)methoxy]phenyl}propanoic acid] were, in that order, 44.5 nM and 4.45e-09 M.
Consider `Cc1c(-c2c(-c3ccc(F)cc3)sc3ncnc(OC(Cc4ccccc4OCc4ccnc(-c5ccc(OP(=O)(O)O)cc5)n4)C(=O)O)c23)ccc(OCCN2CCN(C)CC2)c1Cl` [Example 29, 4-[4-({2-[(2R)-2-carboxy-2-{[(5Sa)-5-{3-chloro-2-methyl-4-[2-(4-methylpiperazin-1-yl)ethoxy]phenyl}-6-(4-fluorophenyl)thieno[2,3-d]pyrimidin-4-yl]oxy}ethyl]phenoxy}methyl)pyrimidin-2-yl]phenyl phosphate], for which the IC50 in the experiment on H929 cells (setting [1]) was 22.7 nM; at Mcl-1 protein it was 4.6e-09 M.
Consider `Cc1c(-c2c(-c3ccc(F)cc3)sc3ncnc(OC(Cc4ccccc4OCc4ccnc(-c5cccc(OCCOCCOCCO)c5)n4)C(=O)O)c23)ccc(OCCN2CCN(C)CC2)c1Cl` [Example 38, (2R)-2-{[(5Sa)-5-{3-chloro-2-methyl-4-[2-(4-methylpiperazin-1-yl)ethoxy]phenyl}-6-(4-fluorophenyl)thieno[2,3-d]pyrimidin-4-yl]oxy}-3-(2-{[2-(3-{2-[2-(2-hydroxyethoxy)ethoxy]ethoxy}phenyl)pyrimidin-4-yl]methoxy}phenyl)propanoic acid], for which the IC50 in the experiment with H929 cells (setting [1]) came to 2.76 nM; on Mcl-1 protein (setting [2]), 2.8e-09 M.
As to `COCC(COC)Oc1ccc(-c2nccc(COc3ccccc3CC(Oc3ncnc4sc(-c5ccc(F)cc5)c(-c5ccc(OCCN6CCN(C)CC6)c(Cl)c5C)c34)C(=O)O)n2)cc1` [Example 14, (2R)-2-{[(5Sa)-5-{3-chloro-2-methyl-4-[2-(4-methylpiperazin-1-yl)ethoxy]phenyl}-6-(4-fluorophenyl)thieno[2,3-d]pyrimidin-4-yl]oxy}-3-{(2-[(2-{4-[(1,3-dimethoxypropan-2-yl)oxy]phenyl}pyrimidin-4-yl)methoxy]phenyl}propanoic acid], the IC50 with H929 cells (setting [1]) was determined as 3.37 nM; at Mcl-1 protein (setting [2]), 6.15e-09 M.
For `Cc1c(-c2c(-c3ccc(F)cc3)sc3ncnc(OC(Cc4ccccc4OCc4ccnc(-c5cccc(OP(=O)(O)O)c5)n4)C(=O)O)c23)ccc(OCCN2CCN(C)CC2)c1Cl` [Example 28, (2R)-2-{[(5Sa)-5-{3-chloro-2-methyl-4-[2-(4-methylpiperazin-1-yl)ethoxy]phenyl}-6-(4-fluorophenyl)thieno[2,3-d]pyrimidin-4-yl]oxy}-3-[2-({2-[3-(phosphonooxy)phenyl]pyrimidin-4-yl}methoxy)phenyl]propanoic acid], the IC50 was found to be 48.4 nM in the experiment with H929 cells (setting [1]) and 4.15e-09 M on Mcl-1 protein.
On to `COCCOCc1ccccc1-c1nccc(COc2ccccc2CC(Oc2ncnc3sc(-c4ccc(F)cc4)c(-c4ccc(OCCN5CCN(C)CC5)c(Cl)c4C)c23)C(=O)O)n1` [Example 9, (2R)-2-{[(5Sa)-5-{3-chloro-2-methyl-4-[2-(4-methylpiperazin-1-yl)ethoxy]phenyl}-6-(4-fluorophenyl)thieno[2,3-d]pyrimidin-4-yl]oxy}-3-{2-[(2-{2-[(2-methoxyethoxy)methyl]phenyl}pyrimidin-4-yl)methoxy]phenyl}propanoic acid], for which the IC50 was 1.4 nM in the experiment with H929 cells (setting [1]) and 8.15e-09 M at Mcl-1 protein (setting [2]).
`COCCOCCOCCOc1ccc(-c2nccc(COc3ccccc3CC(Oc3ncnc4sc(-c5ccc(F)cc5)c(-c5ccc(OCCN6CCN(C)CC6)c(Cl)c5C)c34)C(=O)O)n2)cc1` [Example 33, (2R)-2-{[(5Sa)-5-{3-chloro-2-methyl-4-[2-(4-methylpiperazin-1-yl)ethoxy]phenyl}-6-(4-fluorophenyl)thieno[2,3-d]pyrimidin-4-yl]oxy}-3-(2-{[2-(4-{2-[2-(2-methoxyethoxy)ethoxy]ethoxy}phenyl)pyrimidin-4-yl]methoxy}phenyl)propanoic acid]: the IC50 was 1.18 nM with H929 cells (setting [1]) and 2.24e-08 M on Mcl-1 protein (setting [2]).

(Values after patent US10322131B2, “Hydroxyacid derivatives, a process for their preparation and pharmaceutical compositions containing them” (LES LABORATOIRES SERVIER, priority 2015, dated 2019).)
